Like-named read-outs stand apart in the source and are kept apart here.
Legend:
PON1 [1] = target: T1, PON1 (Homo sapiens, UniProt P27169); conditions: inhibitor or antibody (diluted 1:10, v:v) added to the fractions; data not shown
PON1 [2] = target: T1, PON1; conditions: inhibitor 200 μM
Method: Arylesterase activity: Arylesterase activity was determined using 5 μl serum or 10 μl of the HDL or LPDS fraction in a total volume of 1 ml of 50 mM Tris-HCL, pH 8.0 containing 1 mM CaCl2 and 1 mM phenyl acetate. The increase in OD at 270 nm was monitored for 1 minute. One unit is defined as 1 μmol of phenyl actetate hydrolyzed per ml per minute (26).

J774 A.1 macrophages = assay: Macrophage cholesterol efflux mediated by HDL or LPDS; type: cell-based, murine; conditions: Mus musculus
Method: HDL and LPDS were isolated from 3 healthy subjects by ultracentrifugation. […] The cells were also incubated with HDL or LPDS fractions that were preincubated for 1 hour at 37° C. with the PON1 inhibitor 2-hydroxyquinoline (200 μM), or with HDL and LPDS that were enriched with evolved PON1 (50 paraoxonase U/ml). HDL or LPDS-mediated cholesterol efflux was then determined. Results are given as mean±S.D of three different experiments *p<0.01 vs. HDL, #p<0.01 vs. LPDS.
Cells: J774 A.1 murine macrophage cells were purchased from the American Tissue Culture Collection (ATCC, Rockville, Md.). The cells were grown in Dulbecco's modified Eagle's medium (DMEM) containing 5% FCS and 100 U penicillin/ml, 100 μg streptomycin/ml, and 2 mM glutamine.
Macrophage Cholesterol efflux determination: J774 A.1 macrophages were incubated with [^3H]-labeled cholesterol (2 μCi/ml) for 1 hour at 37° C., followed by cell wash in ice-cold PBS (×3) and a further incubation in the absence or presence of HDL or LPDS (5 paraoxonase units/ml)) for 3 hours at 37° C. […] Cellular and medium [^3H]-labeled cholesterol was quantitated and the percentage of cholesterol efflux was calculated [the ratio of [^3H]-label in the medium*100/([^3H]-label in the medium+[^3H]-label in the cells), 18]. […]

T1 sequence (P27169 whole entry): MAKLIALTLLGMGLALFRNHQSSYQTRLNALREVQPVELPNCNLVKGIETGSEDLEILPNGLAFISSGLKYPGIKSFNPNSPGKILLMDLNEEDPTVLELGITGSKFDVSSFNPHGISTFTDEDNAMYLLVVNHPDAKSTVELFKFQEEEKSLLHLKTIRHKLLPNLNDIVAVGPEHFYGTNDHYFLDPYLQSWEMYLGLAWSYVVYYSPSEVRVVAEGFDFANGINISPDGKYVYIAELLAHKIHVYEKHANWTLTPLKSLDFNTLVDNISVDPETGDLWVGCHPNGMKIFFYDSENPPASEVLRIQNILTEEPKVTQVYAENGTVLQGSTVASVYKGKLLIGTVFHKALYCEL

Oc1ccc2ccccc2n1 [2-hydroxyquinoline]
paraoxonase activities in HDL and LPDS (PON1 [1]): significantly reduced
reduction in HDL arylesterase activity (PON1 [2]; HDL fraction): 60%
HDL arylesterase activity with inhibitor (PON1 [2]; HDL fraction, without inhibitor 22.4±1.5): 9.0±1.0 units/ml
reduction in LPDS arylesterase activity (PON1 [2]; LPDS fraction): 76%
LPDS arylesterase activity with inhibitor (PON1 [2]; LPDS fraction, without inhibitor 2.9±0.5): 0.7±0.7 units/ml
inhibition at 200 µM (J774 A.1 macrophages; J774.A1, read-out: reduction of cholesterol efflux by HDL preincubated with the inhibitor): 25%
inhibition at 200 µM (J774 A.1 macrophages; J774.A1, inhibitor 200 μM, vs non-treated LPDS, read-out: reduction of cholesterol efflux by LPDS preincubated with the inhibitor): 10%

Source: US20070224657A1, “Distribution of PON1 as a marker of lipid related disorders” (priority 2006, published 2007)
